One may read the EC50 as the midpoint of the concentration-response curve. One may read the CC50 as the concentration giving 50% cytotoxicity.

The values that follow come from ChEMBL document CHEMBL3352429, “A review on recent developments of indole-containing antiviral agents” (Eur J Med Chem, 2015).

In brackets after ≈: the same amount, converted by molar mass. Where a name gives a salt, the structure may show the parent alone.

Data set [1] deals with T1, Human immunodeficiency virus type 1 integrase (Human immunodeficiency virus 1, UniProt Q7ZJM1). The data set can be described thus: Inhibition of HIV-1 integrase.
T1 sequence (Q7ZJM1 whole entry): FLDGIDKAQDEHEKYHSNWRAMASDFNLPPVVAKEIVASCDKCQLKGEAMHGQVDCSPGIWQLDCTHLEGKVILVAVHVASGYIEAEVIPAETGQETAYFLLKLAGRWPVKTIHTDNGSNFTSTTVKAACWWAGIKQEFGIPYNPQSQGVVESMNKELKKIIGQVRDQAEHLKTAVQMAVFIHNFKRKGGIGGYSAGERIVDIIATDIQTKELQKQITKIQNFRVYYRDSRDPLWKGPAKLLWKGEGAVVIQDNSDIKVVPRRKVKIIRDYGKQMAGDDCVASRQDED
A short description of data set [2]: Therapeutic index, ratio of CC50 for human C8166 cells to EC50 for HIV-1 3B. The class given is cell-based. The settings on record: read-out: Ratio CC50/EC50.
The test system of data set [3] is Human immunodeficiency virus 1. Kind of data set: Antiviral activity against wild type HIV1 3B infected in human C8166 cells assessed as cytopathic effect by counting the number of syncytia. In kind it is functional, organism-based. The settings on record: Human immunodeficiency virus 1, 3B. On the technique in general: Damage to the host cells serves as the signal in cytopathic effect assays.

A short description of data set [4]: Inhibition of HIV-1 integrase LEDGF/p75 (unknown origin) interaction. Set-up: species or system Human immunodeficiency virus 1.
For data set [5], the system named is Human immunodeficiency virus 1. Kind of data set: Antiviral activity against wild type HIV1 3B infected in human MT-2 cells assessed as protection of infected cells by MTT colorimetric method. In kind it is functional, organism-based. As to conditions: Human immunodeficiency virus 1, 3B, MT2. Background: Tetrazolium assays rely on reduction of a dye to a coloured formazan, in cell work by metabolically active cells.

Data set [6] can be described thus: Selectivity index, ratio of CC50 for human TZM-bl cells to EC50 for HIV-1 3B. The settings on record: read-out: Ratio CC50/EC50. The class given is toxicity, cell-based.
Data set [7] is described as follows: Cytotoxicity against human TZM-bl cells. In kind it is cell-based.
In data set [8] the test system is Human immunodeficiency virus 1. The data set can be described thus: Antiviral activity against HIV-1 3B infected in human TZM-bl cells. In kind it is functional, organism-based. The settings on record: Human immunodeficiency virus 1, 3B.
Data set [9] deals with T1, Human immunodeficiency virus type 1 integrase. The data set can be described thus: Inhibition of HIV-1 integrase strand transfer activity.
The subject of data set [10] is Human immunodeficiency virus 1. The data set can be described thus: Antiviral activity against HIV1. The class given is functional, organism-based.
The test system of a further data set is Human alphaherpesvirus 1. The data set can be described thus: Antiviral activity against Herpes simplex virus type 1. In kind it is functional, organism-based.
Another data set has as its system Human alphaherpesvirus 2. Kind of data set: Antiviral activity against Herpes simplex virus type 2. In kind it is functional, organism-based.
For data set [11], the system named is Human immunodeficiency virus 1. The data set can be described thus: Antiviral activity against HIV1 infected in human peripheral blood leukocyte cells assessed as inhibition of replication. The class given is functional, organism-based.
A short description of data set [12]: Cytotoxicity against human peripheral blood leukocyte cells at 100 uM. The class given is cell-based.
Setting [13] is: read-out: ID50 (the source's name).

`Cc1cc(C)cc(Cn2cc(C(=O)/C=C(\O)C(=O)O)c3c(O)cccc32)c1`: in [1], the IC50 stood at 3500 nM.

`O=[N+]([O-])c1ccccc1-n1ccc2ccccc21`: in data set [2], the selectivity ratio is 24.6. Besides, the EC50 in data set [3] came to 7.88 µg/mL (≈ 33.1 µM).

`COc1cccc2c1c(C(=O)/C=C(\O)C(=O)O)cn2Cc1ccc(F)cc1` displayed an IC50 in data set [4] of 36000 nM.

For `O=c1ccn(CCOc2ccccc2Oc2cccc3[nH]ccc23)c(=O)[nH]1`, in data set [5], the EC50 stood at 85 nM.

With `CCOC(=O)C(O)(c1c[nH]c2ccc([N+](=O)[O-])cc12)C(F)(F)F` (stereo not given), in data set [6], the selectivity ratio is 11.1. In data set [7], this molecule had a CC50 of 211000 nM. Moreover, the midpoint of the response in data set [8], the EC50, lay at 19 nM.

On to `O=[N+]([O-])c1ccc2c(ccn2-c2ccccc2[N+](=O)[O-])c1`, for which, in [2], the selectivity ratio was 24.6. Moreover, in data set [3], the EC50 is 7.88 µg/mL (≈ 27.8 µM).

`Cc1cn(-c2ccc([N+](=O)[O-])cc2)c2ccccc12`: the selectivity ratio in [2] is 24.6. Moreover, in [3], the half-maximal effective concentration (EC50) is 7.88 µg/mL (≈ 31.2 µM).

Turning to `COc1cccc2c1c(C(=O)/C=C(\O)C(=O)O)cn2Cc1cc(C)cc(C)c1`, the IC50 in data set [9] worked out at 5490 nM. In data set [10], this molecule displayed a concentration for a half-maximal effect (EC50) of 4630 nM.

`CC(C)CC(=O)[C@@H](O)Cc1c[nH]c2ccccc12`: the IC50 worked out at 1.5 µg/mL (≈ 6.11 µM) in the data set with Human alphaherpesvirus 1 (setting [13]) and 1.5 µg/mL in the data set with Human alphaherpesvirus 2 (setting [13]).

`C[C@H]1c2nc(N)[nH]c2[C@]2(O)C[C@H]1c1c(-c3cnc(-c4c[nH]c5cc(Br)ccc45)c(=O)[nH]3)c[nH]c1C2=O`: the results for the EC50 (in the data set on Human alphaherpesvirus 1; in [10]) were 95800 nM and 910 nM, respectively.

As to `O=C(/C=C/c1c[nH]c2c(O)cccc12)N/C=C/c1c[nH]c2ccccc12`, the IC50 in the data set with Human alphaherpesvirus 2 (read-out: IC50) came out at 1000 nM.

`COc1ccc2c(c1)N=CN1CCc3c([nH]c4ccccc34)C3=NCC[C@@]321` returned a concentration for a half-maximal effect (EC50) in [10] of 20 nM.

`COc1ccc2c3c([nH]c2c1)C1=NCC[C@]12c1ccccc1N=CN2CC3` registered an EC50 in [10] of 950 nM.

For `CCNc1cccnc1N1CCN(C(=O)c2cc3cc(OC)ccc3[nH]2)CC1` [ATEVIRDINE MESYLATE], in [11], the IC50 came out at 1 nM. Moreover, in [12], the Activity is listed as 50%.

On to `O=C(/C=C/c1c[nH]c2ccccc12)N/C=C/c1c[nH]c2ccccc12` [CHONDRIAMIDE A], for which, in the data set on Human alphaherpesvirus 2 (read-out: IC50), the IC50 was determined as 1000 nM.

`O=C(/C=C/c1c[nH]c2ccccc12)N/C=C\c1c[nH]c2ccccc12` [CHONDRIAMIDE C]: the IC50 in the data set on Human alphaherpesvirus 2 (read-out: IC50) was 1000 nM.
